US11040107B2, “Dosing regimens and related compositions and methods” (Apellis Pharmaceuticals, Inc., priority 2017, dated 2021)

Tests used:
[1] = Phase 1 single and multiple ascending dose trial of inhaled CA28; type: in vivo, human; conditions: for adverse event: one subject
Description: In the single ascending dose part of the trial, 16 subjects were enrolled in four cohorts of four subjects each.
Four subjects were enrolled in the first cohort of the multiple ascending dose part of the trial. These subjects were to receive 14 consecutive days of treatment with a 60 mg/day dose of the drug. […] The trial was paused and subsequently resumed, with subjects receiving 30 mg/day. […] The trial was then terminated.

[2] = system: RBCs from a patient with PNH; assay: Modified Ham's test with flow cytometry for CD59 and C3d; type: cell-based, human
Description: A modified Ham's test was performed to assess the ability of compstatin analogs to protect PNH RBCs from complement-mediated lysis. […] Exposure to heat inactivated human serum was used as a control representing no significant complement-mediated lysis as complement is inactivated by heat. Exposure to acidified human serum and magnesium (Mg^2+) in the absence of complement inhibitors (pane labeled Mg^2+) was used as a control representing maximum lysis.
Following incubation, cells were stained with antibodies to CD59 and C3d. CD59 level permitted the classification of the PNH RBCs as Type I, Type II, or Type III. Staining for C3d, a product of C3 activation and cleavage was used as a marker of C3 and C3 activation product deposition (loading). Flow cytometric analysis was performed to assess CD59 and C3d on RBC surfaces and to quantify the percentages of Type I, Type II, and Type III cells present in various samples.

[3] = system: inflammatory cytokines in the lungs; assay: Ascaris suum challenge model; type: in vivo, cynomolgus monkeys; conditions: nebulized 20 mg/day or 15 mg/kg/d for 14 days; during treatment and 28 days after cessation
[4] = target: T1, complement component C3 (human) (human, UniProt P01024 23-1663); assay: cell-based or functional assay
[5] = target: T1, complement component C3 (human); assay: cell-based or functional assay; remark: listed apart in the source
[6] = target: T1, complement component C3 (human); assay: cell-based or functional assay; remark: listed apart in the source
[7] = target: T1, complement component C3 (human); assay: cell-based or functional assay; remark: listed apart in the source
[8] = target: T1, complement component C3 (human); assay: cell-based or functional assay; remark: listed apart in the source

## CC[C@H](C)[C@H](NC(C)=O)C(=O)N[C@H]1CSSC[C@@H](C(=O)N[C@H](C(N)=O)[C@@H](C)O)NC(=O)[C@H](CCCNC(=N)N)NC(=O)[C@H](Cc2cnc[nH]2)NC(=O)[C@H](C)NC(=O)CNC(=O)[C@H](Cc2c[nH]c3ccccc23)NC(=O)[C@H](CC(=O)O)NC(=O)[C@H](CCC(N)=O)NC(=O)[C@H](Cc2cn(C)c3ccccc23)NC(=O)[C@H](C(C)C)NC1=O [CA28]
[1]; 30 mg/day inhaled, after 10 days
  adverse event: signs and symptoms consistent with a potential bacterial infection
[1]; 60 mg/day inhaled, after nine days
  adverse event: signs and symptoms consistent with a potential bacterial infection
[1]; single inhaled dose 20, 60, 150 or 350 mg
  safety and tolerability: well tolerated
[2]; 100 ug/ml or more
  protection from complement-mediated lysis: complete protection from complement-mediated lysis
[2]; 1 micrograms/ml
  % C3 (Type I): 1.7%
  % C3 (Type III): 1.2%
[2]; 4 micrograms/ml
  % C3 (Type III): 0.83%
[2]; 8 micrograms/ml
  % C3 (Type III): 0.7%
  Type II %: 66%
[2]; 15 micrograms/ml
  % C3 (Type III): 0.98%
  Type I %: 15%
[2]; 25 micrograms/ml
  % C3 (Type II): 9.3%
  % C3 (Type III): 0.75%
  Type I %: 14.96%
[2]; 100 micrograms/ml
  % C3 (Type I): 0.08%
  % C3 (Type II): 0.92%
  % C3 (Type III): 0.1%
  Type III %: 37.96%
[2]; 100 micrograms/ml compound or higher
  C3 loading on PNH red cells: virtually no C3 loading
[2]; 500 micrograms/ml
  % C3 (Type I): 0.14%
  % C3 (Type II): 0.63%
  % C3 (Type III): 0.09%
[3]
  levels of inflammatory cytokines in broncheoalveolar lavage fluid after allergen challenge: had a pharmacological effect

B1: CA28-AEEAc-Lys(mPEG40K-carbonyl) (peptide)
peptide: ICVWQDWGAHRCTK
modifications: N-terminal acetyl; 1-methyl-tryptophan at position 4; disulfide bond Cys2-Cys12; AEEAc spacer between Thr13 and Lys; linear monomethoxy 40 kD PEG (NOF SUNBRIGHT ME-400TS, carbonyl linkage) on the Lys side chain; C-terminal amide
[4]
  IC50 (read off the curve): % inhibition of classical pathway complement activation (C3b deposition ELISA, human plasma): ~700 nM

B2: CA28-AEEAc-Lys(mPEG40K-hexanoyl) (peptide)
peptide: ICVWQDWGAHRCTK
modifications: N-terminal acetyl; 1-methyl-tryptophan at position 4; disulfide bond Cys2-Cys12; AEEAc spacer between Thr13 and Lys; linear monomethoxy 40 kD PEG (NOF SUNBRIGHT ME-400HS, hexanoyl linkage) on the Lys side chain; C-terminal amide
[4]
  IC50 (read off the curve): % inhibition of classical pathway complement activation (C3b deposition ELISA, human plasma): ~700 nM

B3: CA28-2GS-BF (peptide)
peptide: ICVWQDWGAHRCTK
modifications: not fully specified; N-terminal acetyl; 1-methyl-tryptophan at position 4; disulfide bond Cys2-Cys12; AEEAc spacer between Thr13 and Lys; Lys side chain coupled to one end of a bifunctional linear 40 kD PEG of the GS type (glutaryl, amide plus ester linkage); C-terminal amide
[5]
  Q1 (Type III cells with C3d deposition) % Parent, modified Ham's test, at 50 ug/ml: 0.01%
  Q2 (Type I and II cells with C3d deposition) % Parent, modified Ham's test, at 50 ug/ml: 0.01%
  Q3 (Type III cells without significant C3d deposition) % Parent, modified Ham's test, at 50 ug/ml: 61.5%
  Q4 (Type I and II cells without significant C3d deposition) % Parent, modified Ham's test, at 50 ug/ml: 38.5%

B4: CA28-AEEAc-Lys-(PEG30k) (peptide)
peptide: ICVWQDWGAHRCTK
modifications: not fully specified; N-terminal acetyl; 1-methyl-tryptophan at position 4; disulfide bond Cys2-Cys12; AEEAc (8-amino-3,6-dioxaoctanoyl) spacer between Thr13 and Lys; linear monofunctional 30 kD PEG (NOF SUNBRIGHT ME-300GS) on the Lys side chain; C-terminal amide
[6]
  IC50, classical complement inhibition assay (C3b deposition ELISA, human plasma): 1260 nM

B5: (CA28-AEEAc)8-PEG40k (peptide)
peptide: ICVWQDWGAHRCTK
modifications: N-terminal acetyl; 1-methyl-tryptophan at position 4; disulfide bond Cys2-Cys12; AEEAc spacer between Thr13 and Lys; Lys side chain coupled to one arm of an eight-arm 40 kD PEG (NOF SUNBRIGHT HGEO-400GS); C-terminal amide
[7]
  IC50 on a molar basis of the compound, classical complement inhibition assay: ~260 nM
[6]
  IC50, classical complement inhibition assay, as a function of CA28 moiety concentration: 1930 nM

B6: CA28-AEEAc-Lys-(PEG40k) (peptide)
peptide: ICVWQDWGAHRCTK
modifications: N-terminal acetyl; 1-methyl-tryptophan at position 4; disulfide bond Cys2-Cys12; AEEAc spacer between Thr13 and Lys; linear monomethoxy 40 kD PEG (NOF SUNBRIGHT ME-400GS, glutaryl linkage) on the Lys side chain; C-terminal amide
[4]
  IC50 (read off the curve): % inhibition of classical pathway complement activation (C3b deposition ELISA, human plasma): ~700 nM
[6]
  IC50, classical complement inhibition assay (C3b deposition ELISA, human plasma): 1290 nM

B7: CA28-2TS-BF (peptide)
peptide: ICVWQDWGAHRCTK
modifications: not fully specified; N-terminal acetyl; 1-methyl-tryptophan at position 4; disulfide bond Cys2-Cys12; AEEAc spacer between Thr13 and Lys; Lys side chain coupled by a carbamate to one end of a bifunctional linear 40 kD PEG of the TS type; C-terminal amide
[8]
  IC50 (read off the curve): % inhibition of alternative pathway complement activation (LPS-coated plate, C3b deposition ELISA, human plasma) [B]: ~400 nM

B8: CA28-AEEAc-Lys(mPEG40K-succinyl) (peptide)
peptide: ICVWQDWGAHRCTK
modifications: N-terminal acetyl; 1-methyl-tryptophan at position 4; disulfide bond Cys2-Cys12; AEEAc spacer between Thr13 and Lys; linear monomethoxy 40 kD PEG (NOF SUNBRIGHT ME-400CS, succinyl linkage) on the Lys side chain; C-terminal amide
[4]
  IC50 (read off the curve): % inhibition of classical pathway complement activation (C3b deposition ELISA, human plasma): ~700 nM
